Assay results taken from patent EP4741383A1, “COMPOUND AND USE THEREOF AS ANTI-CANCER DRUG” (Tyligand Bioscience (Shanghai) Limited, priority 2023, dated 2025).
Read-outs that look alike come from different tables or passages of the source.

Molecular target: T1, CYP3A4 (Homo sapiens, UniProt P08684)
T1 construct: tissue Corning or Xenotech; host or cells: human liver microsomes
Experiment: CYP450 inhibition in human liver microsomes, CYP3A4 (midazolam and testosterone substrates)
Type: in vitro ADME
Description: According to standard methods in the field for the study of cytochrome P450 enzyme systems, such as the method described in Kerns, Edward H. and Di Li et al., Drug-like Properties: Concepts, Structure Design and Methods: from ADME to Toxicity Optimization (2008), San Diego, Academic Press, and Lin, Tong et al., In Vitro Assessment of Cytochrome P450 Inhibition: Strategies for Increasing LC/MS-Based Assay Throughput Using a One-Point IC50 Method and Multiplexing High-Performance Liquid Chromatography (J. Pharm. Sci. 2007, 96 (9), 2485). The inhibitory effect of the disclosed compounds on the cytochrome P450 enzyme system was similarly examined below.
Human liver microsomes were purchased from Corning or Xenotech. The test compounds were evaluated by detecting the metabolism of substrates for different Cyp450 isoforms by human liver microsomes.
0.1 M potassium phosphate buffer (K-buffer, pH 7.4) was pre-warmed.
100 mM K-buffer was prepared by mixing 9.5 mL of stock solution A (1 M potassium dihydrogen phosphate, prepared by dissolving 136.5 g of potassium dihydrogen phosphate in 1 L of Milli-Q water) with 40.5 mL of stock solution B (1 M potassium hydrogen phosphate, prepared by dissolving 174.2 g of potassium hydrogen phosphate in 1 L of Milli-Q water). The total volume was adjusted to 500 mL with Milli-Q water, and the buffer was titrated to pH 7.4 using KOH or H3PO4.
Test compound solution and specific inhibitor solution (400× dilution) were prepared in a 96-well plate. For the test compound, 8 µL of 10 mM test compound was transferred into 12 µL of ACN. For specific inhibitors of CYP1A2, CYP2C9, and CYP2D6: 12 µL of 1 mM α-naphthoflavone, 10 µL of 40 mM sulfaphenazole, 10 µL of 10 mM quinidine, and 8 µL of DMSO were mixed. For specific inhibitors of CYP3A4, CYP2B6, CYP2C8, and CYP2C19: 8 µL of DMSO stock solution was added to 12 µL of ACN.
A 4× diluted NADPH solution was prepared by dissolving 66.7 mg of NADPH in 10 mL of 0.1 M K-buffer (pH 7.4). Human liver microsome (HLM) solutions were prepared in K-buffer, wherein 0.1 mg/mL for CYP1A2, CYP2C9, CYP2D6, CYP3A4, and CYP2B6, 0.5 mg/mL for CYP2C19, 0.2 mg/mL for CYP2C8. 4× diluted substrate dilution solutions (2 mL per isozyme) were prepared in K-buffer (HLM was added on ice if required) with the following concentrations: 120 µM for CYP1A2, 40 µM for CYP2C9, 140 µM with 1.6 mg/mL HLM for CYP2C19, 40 µM for CYP2D6, 320 µM and 20 µM for CYP3A4 (two concentrations), 280 µM for CYP2B6, 40 µM with 0.4 mg/mL HLM for CYP2C8.
A 0.2 mg/mL HLM solution was prepared on ice (by adding 10 µL of 20 mg/mL stock to 990 µL of 0.1 M K buffer). To the assay wells, 400 µL of the 0.2 mg/mL HLM solution was added, followed by 2 µL of the 400× diluted test compound solution, which was added on ice to the designated wells. To the assay wells, 200 µL of the 0.2 mg/mL HLM solution was added, followed by 1 µL of the specific inhibitor solution, which was added on ice to the designated wells. The following solutions were added in duplicate to the 96-well analysis plate kept on ice: 30 µL of the 2× diluted test compound solution and the specific inhibitor solution were added to the 0.2 mg/mL HLM solution, 15 µL of the 4× diluted substrate solution was added. The 96-well assay plate and the NADPH solution were pre-incubated at 37 °C for 5 min. The reaction was initiated by adding 15 µL of the pre-warmed 8 mM NADPH solution to the assay plate. Reactions were performed at 37 °C for the following durations according to the P450 isoform: 5 min for CYP3A4, 10 min for CYP1A2, CYP2B6, CYP2C8, CYP2C9, and CYP2D6, 45 min for CYP2C19. Reactions were terminated by adding 120 µL of ACN containing internal standards. The final internal standard concentrations were: 0.1 µM for CYP2C19, CYP1A2, CYP3A4 (midazolam), and CYP2D6, 200 ng/mL for CYP3A4 (testosterone), 0.31 µM for CYP2C9, 0.36 µM (100 ng/mL) for CYP2B6, 40 ng/mL for CYP2C8. […]

[1] = pH 7.4, probe midazolam, midazolam substrate, read-out: % CYP inhibition @ 10 µM 3A4 (midazolam)
[2] = pH 7.4, probe testosterone, testosterone substrate, read-out: % CYP inhibition @ 10 µM 3A4 (testosterone)

T1 sequence (P08684 whole entry): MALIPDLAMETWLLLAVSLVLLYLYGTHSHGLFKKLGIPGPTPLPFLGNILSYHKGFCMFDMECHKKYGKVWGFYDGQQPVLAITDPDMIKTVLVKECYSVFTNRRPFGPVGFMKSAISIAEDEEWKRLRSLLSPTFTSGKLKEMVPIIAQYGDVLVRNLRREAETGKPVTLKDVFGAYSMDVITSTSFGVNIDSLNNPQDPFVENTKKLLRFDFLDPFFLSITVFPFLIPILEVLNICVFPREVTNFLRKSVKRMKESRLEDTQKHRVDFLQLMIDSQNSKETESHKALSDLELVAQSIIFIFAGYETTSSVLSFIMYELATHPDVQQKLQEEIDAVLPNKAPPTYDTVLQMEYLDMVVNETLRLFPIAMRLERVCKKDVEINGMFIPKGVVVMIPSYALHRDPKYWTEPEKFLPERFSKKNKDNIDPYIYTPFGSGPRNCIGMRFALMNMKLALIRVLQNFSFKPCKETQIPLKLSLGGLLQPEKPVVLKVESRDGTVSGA

inhibition at 5 min, 10 µM [1] [%] | inhibition at 5 min, 10 µM [2] [%] | SMILES
5.28 | -22.6 | O=C(Nc1ccc(-c2cc3cc(F)c(-c4nnn[nH]4)cc3n2C2CCC2)cc1)C(=O)Nc1ccc(N2CCC(CO)CC2)cc1 [Example 23]
13 | -0.87 | O=C(Nc1ccc(-c2cc3cc(F)c(-c4nnn[nH]4)cc3n2C2CCC2)cc1)C(=O)Nc1ccc(N2CCC3(CCOC3)CC2)cc1 [Example 67]
-10.2 | 2.46 | CC1(n2c(-c3ccc(NC(=O)C(=O)Nc4ccc(N5CCC6(CCOC6)CC5)cc4)cc3)cc3cc(F)c(-c4nnn[nH]4)cc32)CCC1 [Example 68]
